Measurements from patent US20080319042A1, “Compositions and methods for treatment of liver disease” (priority 2007, published 2008).
In brackets after ≈: the same amount, converted by molar mass. Several values for one entry are separate records, joined by “and”; a condition that tells them apart may be missing. Identical values can stand only once.

Legend:
HCV JFH1 = HCV JFH1 infectivity assay (JFH1 Foci Reduction Assay); format: cell-based, hepatitis C virus; settings: virus preincubated with compound, Huh 7 cells, 48 hr post infection, RD8, RD16, RD17, RD18 as glucosidase hydrolysis products
HCV/HIV pseudovirions = experiment: microbe, parasite or virus in culture; format: cell-based, hepatitis C virus
[1] = tested on: hepatitis B surface antigen (HBsAg) production; experiment: Anti-HBSAg Assay (Procedure A); format: cell-based, hepatitis B virus; settings: 50 μg/ml
Procedure: The HBV-producing human hepatoblastoma cell line, Hep G2.2.15 was maintained in DMEM supplemented with 10% fetal bovine serum (FBS), 2 mM glutamine, 100 units/ml penicillin, 100 μg/ml streptomycin and 380 μg/ml gentamicin sulfate (G418) at 37° C. under 5% CO2 in air. The Hep G2 parental cells were grown under identical conditions in MEM with Earle's salts without G418.
Hep G2.2.15 cells (190 μl) were seeded onto microtiter plates at a concentration of 20×10^4 cells/ml. The cells incubated overnight in medium without G418 after which the compound compositions (10 μl) were added. Five 2-fold serial dilutions of extracts or fractions were tested starting at 200 μg/ml final culture concentration. PBS and 3TC (lamivudine) were included as the negative and positive controls, respectively. The treated cells were incubated at 37° C. for 4 days, after which the hepatitis B surface antigen (HBsAg) production in culture supernatants was assayed. The HBsAg released into the culture medium in the presence or absence of test samples was assayed using the BIO-RAD Genetic Systems HBsAg EIA 3.0 kit (Bio-Rad, Redmond, Wash.). This enzyme immunoassay is based on the capture of HBsAg on monoclonal antibody-coated plates. Four- and twelve-fold dilutions of all culture supernatants collected were assayed in triplicate wells of the EIA plate. The percentage inhibition of HBsAg secretion in the presence of the plant samples was calculated against the negative control (PBS).

HBsAg = experiment: Anti-HBSAg Assay (Procedure B), HBsAg; format: cell-based, hepatitis B virus; parameters: HBsAg Ave.: unit not given here
Procedure: The HBV-producing human hepatoblastoma cell line, Hep G2 2.2.15 is maintained in DMEM supplemented with 10% fetal bovine serum (FBS), 2 mM glutamine, 100 units/ml penicillin, 100 μg/ml streptomycin at 37° C. under 5% CO2 in air.
Samples were dissolved in DMSO at the concentration of 20 mg/mL, then further diluted with DMEM medium to the appropriate concentration.
Hep G2 2.2.15 cells (120 μl) were seeded onto 96-well plates at a concentration of 2×10^5 cells/mL. The cells incubated for 72 h in the medium without G418, after which the test samples (120 μl) were added. Five 3-fold serial dilutions of samples were tested. PBS and 3TC (lamivudine) were included as the negative and positive controls, respectively. The treated cells were incubated at 37° C. for 9 days; with the medium with sample being changed each 3 days, after which the culture supernatant was removed for analysis of both the hepatitis B surface antigen (HBsAg) production and hepatitis B DNA expression.
The HBsAg released into the culture medium in the presence or absence of test material was assayed using the kit manufactured by Shanghai Siic Kehua Biotech Co., Ltd (Shanghai, China). This enzyme immunoassay is based on the capture of HBsAg on monoclonal antibody-coated plates. Four- and twelve-fold dilutions of all culture supernatants collected were assayed in triplicate wells of the kit plate. The percentage inhibition of HBsAg secretion in the presence of the compound was calculated against the negative control (PBS). The IC50 values, the dose that inhibited viruses by 50%, were calculated using non-linear regression analysis (percent survival versus concentration).

HBV DNA = experiment: Anti-HBV DNA Assay; format: cell-based, hepatitis B virus; settings: for HBV DNA copies/ml: replicates, listed as HP-S3
HBeAg = experiment: Anti-HBSAg Assay (Procedure B), HBeAg; format: cell-based, hepatitis B virus; parameters: HBeAg Ave: unit not given here
[2] = Enzyme Hydrolysis Processing Time 0.5 hours
[3] = Enzyme Hydrolysis Processing Time 4.0 hours

SMILES: COC(=O)C1=CO[C@@H](O)[C@@H]2C(CO)=CC[C@H]12 [RD-4]
- IC50 (HCV JFH1; Hepatitis C virus, read-out: Estimated IC50 (inhibition of HCV JFH1 infectivity)): 22 µg/mL (≈ 97.2 µM)
- inhibition at 20 µg/mL (HCV/HIV pseudovirions; Hepatitis C virus, Huh-7, read-out: HCV Inhibition at 20 μg/mL): 73.2%

SMILES: COC(=O)C1=COC(O)C2C1C(O)CC2(C)O (mixture of isomers) [RD-16]
- Estimated IC50 (inhibition of HCV JFH1 infectivity) (HCV JFH1): 14 µg/mL
- HCV Inhibition at 20 μg/mL (HCV/HIV pseudovirions; [2]): 49.0
- HCV Inhibition at 20 μg/mL (HCV/HIV pseudovirions; [3]): 61.2

SMILES: OCC1=C[C@@H](O)[C@@H]2C=CO[C@@H](O[C@@H]3O[C@H](CO)[C@@H](O)[C@H](O)[C@H]3O)[C@H]12 [aucubin]
- inhibition of HCV/HIV entry (HCV/HIV pseudovirions; 100 μg/mL, FIG. 1): inactive
- % Control HBSAg [1]: 100%
- % Inhibition [1]: 0%
- HBsAg Ave. (HBsAg; 12.5 μg/mL): 1.232
- HBsAg Inhibition % (HBsAg; 12.5 μg/mL): 0%
- HBsAg OD1 (HBsAg; 12.5 μg/mL): 1.196
- HBsAg OD2 (HBsAg; 12.5 μg/mL): 1.261
- HBsAg OD3 (HBsAg; 12.5 μg/mL): 1.238
- HBsAg Ave. (HBsAg; 25 μg/mL): 1.309
- HBsAg Inhibition % (HBsAg; 25 μg/mL): 0%
- HBsAg OD1 (HBsAg; 25 μg/mL): 1.242
- HBsAg OD2 (HBsAg; 25 μg/mL): 1.384
- HBsAg OD3 (HBsAg; 25 μg/mL): 1.302
- HBsAg Ave. (HBsAg; 50 μg/mL): 1.272
- HBsAg Inhibition % (HBsAg; 50 μg/mL): 0%
- HBsAg OD1 (HBsAg; 50 μg/mL): 1.218
- HBsAg OD2 (HBsAg; 50 μg/mL): 1.375
- HBsAg OD3 (HBsAg; 50 μg/mL): 1.222
- HBsAg Ave. (HBsAg; 100 μg/mL): 1.292
- HBsAg Inhibition % (HBsAg; 100 μg/mL): 0%
- HBsAg OD1 (HBsAg; 100 μg/mL): 1.276
- HBsAg OD2 (HBsAg; 100 μg/mL): 1.353
- HBsAg OD3 (HBsAg; 100 μg/mL): 1.246
- HBsAg Ave. (HBsAg; 200 μg/mL): 1.541
- HBsAg Inhibition % (HBsAg; 200 μg/mL): 0%
- HBsAg OD1 (HBsAg; 200 μg/mL): 1.546
- HBsAg OD2 (HBsAg; 200 μg/mL): 1.616
- HBsAg OD3 (HBsAg; 200 μg/mL): 1.46
- HBV DNA Average (HBV DNA; 12.5 μg/ml): 1.06 × 10^6 copies/ml
- HBV DNA Inhibit (HBV DNA; 12.5 μg/ml): 9.40%
- HBV DNA copies/ml (HBV DNA; 12.5 μg/ml): 1.03E+06 copies/ml and 9.68E+05 copies/ml and 1.18E+06 copies/ml
- HBV DNA Average (HBV DNA; 25 μg/ml): 1.03 × 10^5 copies/ml
- HBV DNA Inhibit (HBV DNA; 25 μg/ml): 1.35%
- HBV DNA copies/ml (HBV DNA; 25 μg/ml): 9.52E+05 copies/ml and 1.07E+06 copies/ml and 1.04E+06 copies/ml
- HBV DNA Average (HBV DNA; 50 μg/ml): 1.28 × 10^6 copies/ml
- HBV DNA Inhibit (HBV DNA; 50 μg/ml): 0.00%
- HBV DNA copies/ml (HBV DNA; 50 μg/ml): 1.22E+06 copies/ml and 1.27E+06 copies/ml and 1.35E+06 copies/ml
- HBV DNA Average (HBV DNA; 100 μg/ml): 1.32 × 10^6 copies/ml
- HBV DNA Inhibit (HBV DNA; 100 μg/ml): 0.00%
- HBV DNA copies/ml (HBV DNA; 100 μg/ml): 1.17E+06 copies/ml and 1.15E+06 copies/ml and 1.65E+06 copies/ml
- HBV DNA Average (HBV DNA; 200 μg/ml): 1.20 × 10^6 copies/ml
- HBV DNA Inhibit (HBV DNA; 200 μg/ml): 0.00%
- HBV DNA copies/ml (HBV DNA; 200 μg/ml): 1.38E+06 copies/ml and 9.71E+05 copies/ml and 1.24E+06 copies/ml
- HBeAg Ave (HBeAg; 12.5 μg/mL): 1.378
- HBeAg Inhibition % (HBeAg; 12.5 μg/mL): 0%
- HBeAg OD1 (HBeAg; 12.5 μg/mL): 1.397
- HBeAg OD2 (HBeAg; 12.5 μg/mL): 1.419
- HBeAg OD3 (HBeAg; 12.5 μg/mL): 1.318
- HBeAg Ave (HBeAg; 25 μg/mL): 1.364
- HBeAg Inhibition % (HBeAg; 25 μg/mL): 0%
- HBeAg OD1 (HBeAg; 25 μg/mL): 1.332
- HBeAg OD2 (HBeAg; 25 μg/mL): 1.369
- HBeAg OD3 (HBeAg; 25 μg/mL): 1.390
- HBeAg Ave (HBeAg; 50 μg/mL): 1.383
- HBeAg Inhibition % (HBeAg; 50 μg/mL): 0%
- HBeAg OD1 (HBeAg; 50 μg/mL): 1.357
- HBeAg OD2 (HBeAg; 50 μg/mL): 1.437
- HBeAg OD3 (HBeAg; 50 μg/mL): 1.354
- HBeAg Ave (HBeAg; 100 μg/mL): 1.616
- HBeAg Inhibition % (HBeAg; 100 μg/mL): 0%
- HBeAg OD1 (HBeAg; 100 μg/mL): 1.707
- HBeAg OD2 (HBeAg; 100 μg/mL): 1.479
- HBeAg OD3 (HBeAg; 100 μg/mL): 1.662
- HBeAg Ave (HBeAg; 200 μg/mL): 1.357
- HBeAg Inhibition % (HBeAg; 200 μg/mL): 0%
- HBeAg OD1 (HBeAg; 200 μg/mL): 1.350
- HBeAg OD2 (HBeAg; 200 μg/mL): 1.305
- HBeAg OD3 (HBeAg; 200 μg/mL): 1.415

SMILES: O=C(C=Cc1ccc(O)cc1)OCC1=CC(O)C2C=COC(O)C12 (mixture of isomers) [RD-18]
- Estimated IC50 (inhibition of HCV JFH1 infectivity) (HCV JFH1): 26 µg/mL
- HCV Inhibition at 20 μg/mL (HCV/HIV pseudovirions; [2]): 46.6
- HCV Inhibition at 20 μg/mL (HCV/HIV pseudovirions; [3]): 56.6
